# Reference: US20080076927A1, “Synthetic Methods and Intermediates for Stereoisomeric Compounds Useful for the Treatment of Gastrointestinal and Central Nervous System Disorders” (ARYx Therapeutics, Inc., priority 2005, published 2008)
# Where two headings read alike, the source gives them in different places.
# Columns and labels:
# [1] = Metabolism in Fresh Human Blood; format: in vitro ADME; details: blood; for half-life at 100 µM: Half-life (min); for Half-life: 100 µM
# Experimental: Fresh blood was collected into heparinized tubes from 3 human donors and blood was stored on ice until incubation. Separate aliquots of blood from each donor were pipetted into 1.5 mL centrifuge tubes and the tubes were pre-incubated in a shaking water bath at 37° C. for 5 minutes. The reaction was initiated by the addition of 10 μL of the appropriate test compound stock to each tube (final concentration=100 μM). Incubations were quenched after 0, 5, 15, 30 and 60 minutes, by the addition of acetonitrile ([…]), centrifuged at 12,000 rpm for 2 minutes and the supernatant analyzed on an Agilent 1100 HPLC system. Separations were accomplished on a Keystone Intersil ODS2, 250×4.6 mm, […] column. The aqueous mobile phase consisted of 20 mM ammonium acetate buffer (pH 5.7) and the organic phase acetonitrile. A gradient was used: initial condition consisted of 20% acetonitrile for 1 minute. […] The system was then recycled to initial conditions over the course of 1 minute and held there for 4 minutes before the next injection. […] The results were expressed as amount of initial compound remaining and data subjected to kinetic analysis using WinNonLin. The half-lives for the individual compounds are given below in Table 6.
# [2] = format: in vitro ADME, human
# Experimental: ATI-7505 (2 μM) was incubated with human microsomal protein (1 mg) in the presence or absence of NADPH regenerating system (cofactor).
# Thus the major biotransformation pathway for ATI-7505 occurs independently of CYP450 enzymes.
# The metabolism of these compounds was studied in pooled human microsomes in the presence and absence of the Cytochrome P-450 cofactor NADPH and both the disappearance of parent and the appearance of the corresponding acid metabolite, i.e., the corresponding compound-II isomer, monitored with time.
# In this experiment, the amount of substrate (compounds III, IV, V, and VI) remaining in the reaction after 5, 60, and 90 minutes were evaluated by a tandem HPLC-MS method. This remaining amount was correlated with the appearance of the metabolite compound II.
# [3] = test system: esterases in human plasma
# 5-HT4 Receptor [4] = target: T1, 5-HT4 Receptor (Cavia porcellus, UniProt O70528); assay: 5-HT4 receptor binding of the isomers of compound I, radiolabel displacement method; details: read-out: binding constant Ki
# T1 sequence (O70528 whole entry): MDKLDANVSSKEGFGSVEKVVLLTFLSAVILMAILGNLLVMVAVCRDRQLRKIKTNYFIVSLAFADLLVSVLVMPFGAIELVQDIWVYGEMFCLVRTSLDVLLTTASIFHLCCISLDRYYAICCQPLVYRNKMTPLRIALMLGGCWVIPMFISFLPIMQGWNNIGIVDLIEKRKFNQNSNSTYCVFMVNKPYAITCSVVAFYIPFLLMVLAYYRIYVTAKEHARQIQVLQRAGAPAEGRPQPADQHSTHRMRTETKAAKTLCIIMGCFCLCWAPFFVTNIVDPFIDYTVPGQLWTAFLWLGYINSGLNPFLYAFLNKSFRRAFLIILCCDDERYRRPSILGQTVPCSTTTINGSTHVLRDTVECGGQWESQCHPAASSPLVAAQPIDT
# 2C9 = 2C9 (Homo sapiens, UniProt P11712)
# 2C9, sequence (P11712 whole entry): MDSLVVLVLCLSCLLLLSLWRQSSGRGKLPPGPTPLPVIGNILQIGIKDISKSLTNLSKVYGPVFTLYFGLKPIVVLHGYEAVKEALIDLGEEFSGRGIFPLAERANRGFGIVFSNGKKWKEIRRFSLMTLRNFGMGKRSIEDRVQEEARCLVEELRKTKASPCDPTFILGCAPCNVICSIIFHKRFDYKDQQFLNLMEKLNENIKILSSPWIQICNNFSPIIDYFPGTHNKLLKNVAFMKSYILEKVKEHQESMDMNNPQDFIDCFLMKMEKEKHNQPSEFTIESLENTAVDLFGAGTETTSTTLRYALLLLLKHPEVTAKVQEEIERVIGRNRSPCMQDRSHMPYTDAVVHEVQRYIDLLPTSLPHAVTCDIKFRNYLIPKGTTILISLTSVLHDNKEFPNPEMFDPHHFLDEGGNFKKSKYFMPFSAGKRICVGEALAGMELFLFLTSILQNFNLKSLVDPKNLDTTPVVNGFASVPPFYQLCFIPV
# 5-HT4 Receptor [5] = target: T1, 5-HT4 Receptor; assay: 5-HT4 Receptor Binding, Guinea Pig Striatum, [3H]GR113808; set-up: Guinea Pig Striatum; from tissue; host or cells: guinea pig striatum; details: Guinea Pig Striatum
# [6] = test system: isolated, perfused guinea pig hearts
# CYP3A4 = CYP3A4 (Homo sapiens, UniProt P08684); details: recombinant enzyme
# CYP3A4, sequence (P08684 whole entry): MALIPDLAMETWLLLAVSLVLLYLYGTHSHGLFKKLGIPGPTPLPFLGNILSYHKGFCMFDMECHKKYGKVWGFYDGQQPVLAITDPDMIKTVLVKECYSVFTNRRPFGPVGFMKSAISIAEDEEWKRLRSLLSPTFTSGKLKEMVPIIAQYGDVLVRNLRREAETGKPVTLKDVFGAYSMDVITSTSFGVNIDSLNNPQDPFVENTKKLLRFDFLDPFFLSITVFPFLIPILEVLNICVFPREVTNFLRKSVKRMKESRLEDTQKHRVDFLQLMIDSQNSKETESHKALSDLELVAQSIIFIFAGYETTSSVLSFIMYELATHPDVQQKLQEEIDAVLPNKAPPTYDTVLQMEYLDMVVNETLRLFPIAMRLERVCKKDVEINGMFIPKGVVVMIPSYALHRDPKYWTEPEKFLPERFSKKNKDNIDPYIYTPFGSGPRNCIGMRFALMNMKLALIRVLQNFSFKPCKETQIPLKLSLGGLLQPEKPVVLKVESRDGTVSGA
# 2D6 = 2D6 (Homo sapiens, UniProt P10635)
# 2D6, sequence (P10635 whole entry): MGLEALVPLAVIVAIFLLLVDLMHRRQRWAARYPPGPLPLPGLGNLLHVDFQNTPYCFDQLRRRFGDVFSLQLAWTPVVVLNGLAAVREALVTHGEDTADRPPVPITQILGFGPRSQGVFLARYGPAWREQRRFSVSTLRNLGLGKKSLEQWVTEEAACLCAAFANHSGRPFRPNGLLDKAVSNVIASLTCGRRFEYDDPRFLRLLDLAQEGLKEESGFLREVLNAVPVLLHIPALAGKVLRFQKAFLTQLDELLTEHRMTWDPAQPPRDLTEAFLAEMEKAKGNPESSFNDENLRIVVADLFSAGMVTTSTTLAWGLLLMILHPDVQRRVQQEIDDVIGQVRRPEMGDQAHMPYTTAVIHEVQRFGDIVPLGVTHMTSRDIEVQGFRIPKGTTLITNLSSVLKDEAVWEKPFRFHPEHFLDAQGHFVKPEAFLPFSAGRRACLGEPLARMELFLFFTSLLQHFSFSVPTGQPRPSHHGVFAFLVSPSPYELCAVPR
# [7] = in vivo; cited from earlier work
# [8] = target: T2, human IKr (HERG K+ channels) (Homo sapiens, UniProt Q12809); assay: whole cell patch-clamp of IKr in HEK-293 cells expressing the HERG K+ channels; format: cell-based; details: human, 10000 nM
# T2 construct: expressed in transfected cells; host or cells: HEK-293
# T2 sequence (Q12809 whole entry): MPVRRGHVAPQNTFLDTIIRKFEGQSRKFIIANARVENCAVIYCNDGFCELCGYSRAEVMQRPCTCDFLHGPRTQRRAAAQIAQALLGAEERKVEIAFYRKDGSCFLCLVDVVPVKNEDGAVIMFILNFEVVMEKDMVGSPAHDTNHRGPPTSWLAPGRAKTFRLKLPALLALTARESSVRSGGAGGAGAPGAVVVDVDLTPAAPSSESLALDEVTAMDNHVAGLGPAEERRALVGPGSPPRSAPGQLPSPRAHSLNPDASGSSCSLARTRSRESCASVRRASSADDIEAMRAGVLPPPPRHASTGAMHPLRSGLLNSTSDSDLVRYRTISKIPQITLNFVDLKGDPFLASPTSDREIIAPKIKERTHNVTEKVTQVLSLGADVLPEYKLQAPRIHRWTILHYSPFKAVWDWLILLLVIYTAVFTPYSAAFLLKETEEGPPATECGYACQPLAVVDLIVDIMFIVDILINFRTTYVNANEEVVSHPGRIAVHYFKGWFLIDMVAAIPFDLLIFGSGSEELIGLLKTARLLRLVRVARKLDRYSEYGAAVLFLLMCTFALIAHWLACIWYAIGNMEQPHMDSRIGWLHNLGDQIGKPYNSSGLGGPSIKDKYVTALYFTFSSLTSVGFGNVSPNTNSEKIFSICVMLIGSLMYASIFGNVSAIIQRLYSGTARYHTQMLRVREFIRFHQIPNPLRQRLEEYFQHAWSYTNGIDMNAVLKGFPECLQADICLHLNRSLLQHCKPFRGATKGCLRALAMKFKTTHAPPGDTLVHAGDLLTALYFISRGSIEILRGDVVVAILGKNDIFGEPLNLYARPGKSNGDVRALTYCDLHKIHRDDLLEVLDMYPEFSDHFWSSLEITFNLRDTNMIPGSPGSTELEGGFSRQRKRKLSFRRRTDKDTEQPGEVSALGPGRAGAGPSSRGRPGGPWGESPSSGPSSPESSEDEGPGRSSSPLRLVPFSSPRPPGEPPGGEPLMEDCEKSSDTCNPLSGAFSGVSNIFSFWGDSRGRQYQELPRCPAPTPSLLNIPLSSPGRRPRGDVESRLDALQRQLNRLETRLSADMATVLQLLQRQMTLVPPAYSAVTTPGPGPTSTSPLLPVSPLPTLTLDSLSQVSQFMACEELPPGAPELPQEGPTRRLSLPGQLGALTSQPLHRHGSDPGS
# Experimental: The test system was mammalian HEK-293 cells expressing the HERG K+ channels, in which the potassium current was measured by whole cell patch-clamp technique.
# [9] = July 1993 to December 1999; cited from earlier work
# human 5-HT4 receptor = target: T3, human 5-HT4 receptor (Homo sapiens, UniProt Q13639); assay: adenylyl cyclase stimulation in cells engineered to stably express human 5-HT4 receptor; format: cell-based; details: estimated Emax relative to 5-HT
# T3 construct: expressed in transfected cells
# T3 sequence (Q13639 whole entry): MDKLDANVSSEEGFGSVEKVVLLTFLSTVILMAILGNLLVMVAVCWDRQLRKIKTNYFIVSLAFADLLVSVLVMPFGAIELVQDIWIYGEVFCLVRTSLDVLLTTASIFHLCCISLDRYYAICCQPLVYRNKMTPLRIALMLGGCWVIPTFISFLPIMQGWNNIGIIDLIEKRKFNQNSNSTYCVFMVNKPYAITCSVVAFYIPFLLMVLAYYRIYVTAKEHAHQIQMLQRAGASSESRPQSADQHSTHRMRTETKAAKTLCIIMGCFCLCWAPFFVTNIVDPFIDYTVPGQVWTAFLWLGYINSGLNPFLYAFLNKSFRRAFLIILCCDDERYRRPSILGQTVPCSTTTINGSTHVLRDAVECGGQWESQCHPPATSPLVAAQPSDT
# Source text: ARYx performed in vitro assays based on adenylyl cyclase stimulation in cells engineered to stably express human 5-HT4 receptor. […] [table]
compound,measurement,setting,value
"COc1cc(N)c(Cl)cc1C(=O)N[C@H]1CCN(CCCCCC(=O)O[C@H]2CN3CCC2CC3)C[C@H]1OC [Compound III, (3R,4S,3′R)-6-[4-(4-Amino-5-chloro-2-methoxy-benzoylamino)-3-methoxy-piperidin-1-yl]-hexanoic acid 1-aza-bicyclo[2.2.2]oct-3-yl ester]",half-life at 100 µM,[1],0.2 h
same,hydrolysis by esterase in human microsomes,[2],rapidly hydrolyzed by esterase
same,dependence of metabolism on NADPH / CYP450,"[2]; human, microsomes",not dependent on CYP450
same,rate of metabolism by esterases in human plasma,[3],rapidly metabolized by esterases in human plasma
same,Ki,5-HT4 Receptor [4],28 nM
"COc1cc(N)c(Cl)cc1C(=O)N[C@@H]1CCN(CCCCCC(=O)O)C[C@@H]1OC [ATI-7500, 6-((3S,4R)-4-(4-amino-5-chloro-2-methoxybenzamido)-3-methoxypiperidin-1-yl)hexanoic acid]",biotransformation in pooled human microsomes,[2],does not appear to be subject to further metabolism
same,inhibitory activity against 2C9,2C9,"Neither ATI-7505 nor its primary metabolite, ATI-7500 displayed significant inhibitory activity"
same,IC50,"5-HT4 Receptor [5]; [3H]GR113808 (0.70 nM), read-out: IC50",> 3000 nM
same,Ki,"5-HT4 Receptor [5]; [3H]GR113808 (0.70 nM), read-out: Ki",> 500 nM
same,modulation of cardiac electrophysiologic parameters,[6],entirely lacked electrophysiological activity
same,inhibitory activity against CYP3A4,CYP3A4,"Neither ATI-7505 nor its primary metabolite, ATI-7500 displayed significant inhibitory activity"
same,inhibitory activity against 2D6,2D6; human,"Neither ATI-7505 nor its primary metabolite, ATI-7500 displayed significant inhibitory activity"
"COc1cc(N)c(Cl)cc1C(=O)N[C@@H]1CCN(CCCCCC(=O)O[C@@H]2CN3CCC2CC3)C[C@@H]1OC [Compound VI, (3S,4R,3′S)-6-[4-(4-Amino-5-chloro-2-methoxy-benzoylamino)-3-methoxy-piperidin-1-yl]-hexanoic acid 1-aza-bicyclo[2.2.2]oct-3-yl ester]",Half-life,[1],>1 h
same,half-life at 100 µM,[1],> 1 h
same,hydrolysis by esterase in human microsomes,[2],quite stable with time
same,rate of metabolism by esterases in human plasma,[3],undergo a much slower metabolism
same,Ki,5-HT4 Receptor [4],3.4 nM
"COc1cc(N)c(Cl)cc1C(=O)NC1CCN(CCCOc2ccc(F)cc2)CC1OC (stereo not drawn) [Cisapride, reference compound]",part of a dose metabolized by oxidative N-dealkylation or aromatic hydroxylation,[7],More than 90%
same,"nH, Hill coefficient",5-HT4 Receptor [5],0.8
same,"% IKr control (10,000 nM)",[8],0%
same,"No Observed Effect Level (NOEL), Combined Parameters",[6]; guinea pig,10 nM
same,deaths reported,[9],80
same,serious cardiac arrhythmias reportedly associated,[9],at least 341
same,"antral and small bowel contractility, colonic motor activity","fasted, conscious dogs; IV and PO",dose-dependent stimulation of antral and small bowel contractility with relatively little effect on colonic motor activity
same,prokinetic effects in the dog gut,"fasted, conscious dogs; IV and PO",caused prokinetic effects in the dog gut
same,migrating motor complex (MMC) characteristics,"fasted, conscious dogs; antrum, proximal, mid and distal small intestine",minimal effect
same,Efficacy % of 5HT (serotonin),human 5-HT4 receptor,77%
same,inhibitory activity against 2D6,2D6,significant inhibitory activity
COc1cc(N)c(Cl)cc1C(=O)N[C@H]1CCN(CCCCCC(=O)O[C@@H]2CN3CCC2CC3)C[C@H]1OC [Compound V],Half-life,[1],>1 h
same,half-life at 100 µM,[1],> 1 h
same,hydrolysis by esterase in human microsomes,[2],quite stable with time
same,rate of metabolism by esterases in human plasma,[3],undergo a much slower metabolism
same,Ki,5-HT4 Receptor [4],72 nM
